According to patent publication US20200207830A1, “TREM2 MUTANTS RESISTANT TO SHEDDASE CLEAVAGE” (NOVARTIS AG, priority 2017, published 2020):
No end group written: not given here.

Columns and labels:
human M2A macrophages = test: Live cell imaging of TREM2 cell surface expression in human M2A macrophages; format: cell-based
From the text: (§1) CHO cells were transfected to co-express hDAP12 and hTREM2 using Lipofectamine LTX reagent (Thermofischer) according to the manufacturer's recommendations. One positive clone was selected and designated CHO-hDAP12-hTREM2. Human M2A macrophages were obtained from buffy coat using a negative isolation kit for monocytes (Stem cell technologies) and differentiated for 5 days in RPMI1640 medium with Glutamax (Gibco) supplemented with 10% FBS (Gibco), PenStrep (Gibco), 1% Sodium Pyruvate (Gibco), 0.025 M HEPES Buffer (Gibco), 0.05 mM β-mercaptoethanol (Gibco), M-CSF (40 ng/ml) and IL-4 (50 ng/ml). Cell surface TREM2 was detected by FACS as described above.
(§2) Human M2A macrophages or CHO-hDAP12-hTREM2 were seeded on 384 well plates (Greiner) and treated with ADAM inhibitors DPC333 or GI254023 at concentrations indicated in the figures. 16 h later cells were treated for 30 minutes with PMA (50 ng/ml) or 0.1% DMSO for 30 minutes. Plates were put on ice and stained with goat anti human TREM2 antibody AF1828 (R&D Systems) or isotype control and Hoechst stain followed by incubation with the secondary Alexa Fluor 488 conjugated anti goat antibody (Molecular Probes). Images were acquired using an InCe112000 analyzer (GE Healthcare). For image quantification the free open source software CellProfiler was applied.
To determine the contribution of ADAM10 or ADAM17 to shedding of TREM2 ectodomain, selective inhibitors were identified: DPC333 (Qian et al., Drug Metabolism and Disposition: the Biological Fate of Chemicals 35, 1916-1925, 2007) and GI254023 (Hundhausen et al., Blood. 2003; 102:1186-1195). DPC333 and GI254023 were characterized for inhibitory selectivity towards ADAM10 and ADAM17. […] Using live cell imaging, cell surface expression of hTREM2 was assessed in CHO-hDAP12-hTREM2 cells after overnight treatment of the cells with the two ADAM inhibitors under conditional shedding conditions (FIG. 2A) or after treatment of the cells with PMA (FIG. 2B). […]

CHO-hDAP12-hTREM2 cells = test: Live cell imaging of TREM2 cell surface expression in CHO-hDAP12-hTREM2 cells; format: cell-based; conditions: overnight treatment
From the text: as §1, §2
To determine the contribution of ADAM10 or ADAM17 to shedding of TREM2 ectodomain, selective inhibitors were identified: DPC333 (Qian et al., Drug Metabolism and Disposition: the Biological Fate of Chemicals 35, 1916-1925, 2007) and GI254023 (Hundhausen et al., Blood. 2003; 102:1186-1195). DPC333 and GI254023 were characterized for inhibitory selectivity towards ADAM10 and ADAM17. […] Using live cell imaging, cell surface expression of hTREM2 was assessed in CHO-hDAP12-hTREM2 cells after overnight treatment of the cells with the two ADAM inhibitors under conditional shedding conditions (FIG. 2A) or after treatment of the cells with PMA (FIG. 2B). […] This effect might be attributed to true ADAM10 inhibition or it might be caused by unspecific inhibition of ADAM17 by GI254023 when used at high concentrations. […] To get closer to a physiological cellular system, a similar experiment was conducted in human M2A macrophages differentiated from CD^14+ human monocytes (FIGS. 2C-2D).

ADAM10 [1] = molecular target: T1, ADAM10 (Homo sapiens, UniProt O14672); test: In vitro inhibition of recombinant ADAM10; format: biochemical; conditions: Hepes buffer pH 7.5
T1 sequence (O14672 214-748): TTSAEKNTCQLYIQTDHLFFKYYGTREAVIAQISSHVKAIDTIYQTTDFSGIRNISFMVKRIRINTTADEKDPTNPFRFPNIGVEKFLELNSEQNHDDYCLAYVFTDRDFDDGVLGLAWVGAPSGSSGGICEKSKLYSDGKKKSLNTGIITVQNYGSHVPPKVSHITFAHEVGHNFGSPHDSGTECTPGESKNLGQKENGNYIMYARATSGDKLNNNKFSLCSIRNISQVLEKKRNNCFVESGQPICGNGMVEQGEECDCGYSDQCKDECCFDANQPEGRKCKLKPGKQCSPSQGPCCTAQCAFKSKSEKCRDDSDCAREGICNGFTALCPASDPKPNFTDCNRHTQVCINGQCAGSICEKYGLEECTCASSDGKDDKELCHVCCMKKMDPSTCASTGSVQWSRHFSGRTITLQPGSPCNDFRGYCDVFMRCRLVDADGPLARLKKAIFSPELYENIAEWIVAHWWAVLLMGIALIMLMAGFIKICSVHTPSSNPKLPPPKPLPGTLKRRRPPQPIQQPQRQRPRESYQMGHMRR
Procedure: FIG. 2E is a line graph showing inhibition of recombinant ADAM10 and ADAM17 by DPC333 and GI254023 in vitro in Hepes buffer at pH 7.5.
Enzyme selectivity of the ADAM inhibitors applied was determined in an in vitro cleavage assay and both inhibitors were used over a broad concentration range to investigate effects on TREM2 cell surface expression in CHO-hDAP12-hTREM2 cells and human M2A macrophages.

ADAM17 [2] = molecular target: T2, ADAM17 (Homo sapiens, UniProt P78536); test: In vitro inhibition of recombinant ADAM17; format: biochemical; conditions: Hepes buffer pH 7.5
THP1 cells = test: Cell surface TREM2 and sTREM2 in THP1 CRISPR cell clones; format: cell-based, human
Procedure: THP1 cells stably coexpressing Cas9 and a blasticidin resistance gene delivered by lentivirus were cultured in RPMI medium containing 10% FBS, 1% L-glutamine, 1% pen/strep, and 10 μg/ml of blasticidin (Thermo Fisher Scientific). The cells were cultured at 37° C. in 5% CO2 atmosphere.
THP1-Cas9 cells were infected with lentiviruses expressing the puromycin resistance gene and sgRNAs (for vector design, see Hoffman, Proceedings of the National Academy of Sciences of the United States of America 111, 3128-3133, 2014) targeting either ADAM10 ([…], SEQ ID NO: 75) or ADAM17 ([…], SEQ ID NO: 76). Lentiviral packaging was carried out in HEK293T cells as described previously. Briefly, 30 μL of lentiviral sgRNA supernatant was added to 1×10^6 THP1-Cas9 cells in 2 ml medium containing 5 μg/ml polybrene (Sigma) and spun at 300 g for 90 minutes in a 6-well plate. After 24 hours the cells were spun down and resuspended in fresh culture medium containing 1.5 μg/mL puromycin. After 4 weeks of weekly media changes, genomic DNA was isolated using a Quick-gDNA miniprep kit (Zymo Research) to assess the insertions and deletions (indels) present in the pool by next-generation sequencing (NGS). To isolate clones containing only frameshift indels, cells were plated at limiting dilution into 96-well plates. Upon expansion of the clones, they were assayed by NGS and clones containing only frameshift alleles were selected for downstream assays.
To confirm the results in Example 2, a genetic approach was used to further investigate the contribution of ADAM10/17 to TREM2 shedding. Human monocytic THP1 cells were chosen as model system which endogenously expresses TREM2. Employing the CRISPR/CAS9 technology, clones were generated that lack expression of ADAM10 (AD10 H4) or ADAM17 (AD17 G12) as well as a control cell line (Ctrl gRNA). Absence of gene products was verified by FACS analysis or Western blot (FIGS. 3C-3D).
Cell surface expressed TREM2 and sTREM2 were assessed in the three cell lines in the same experiment using three different conditions: no treatment reflecting constitutive shedding, PMA treatment that maximally activates shedding, and finally PMA and DPC333 treatment. […] Maximally activating sheddases with PMA leads to a strong reduction of cell surface TREM2 both in the control cell line and in the ADAM10 deficient clone. This is reflected in a strong increase in sTREM2. In the ADAM17 deficient cell line, PMA treatment also leads to a reduction of cell surface TREM2, but to a smaller extent than in the control CRISPR clone. Also, the increase in sTREM2 is smaller compared to PMA treated control CRISPR clone and ADAM10 deficient clone. However, the cleavage of TREM2 in the AD17 G12 clone in the presence of PMA must be caused by a sheddase other than ADAM17. […]

ADAM17 [3] = molecular target: T2, ADAM17; test: In vitro cleavage of TREM2 stalk region peptides by ADAM17 (HPLC); format: biochemical; conditions: neutral buffer, up to 48 hours, HPLC of parent peptide
From the text: FIGS. 5A-5E show ADAM17 cleaves TREM2 stalk region peptides in vitro at H157-S158. […] All peptides were obtained with an N-terminal 7-methoxycoumarin (Mca) fluorescent tag […]. Underlined amino acids indicates main sheddase cleavage site. AA112-171: SEQ ID NO: 24; Peptide 1: SEQ ID NO: 25; Peptide 2: SEQ ID NO: 26; Peptide 3: SEQ ID NO: 27; Peptide la: SEQ ID NO: 28; Peptide 2a: SEQ ID NO: 29; Peptide 4: SEQ ID NO: 30; Peptide 5: SEQ ID NO: 31; Peptide 6: SEQ ID NO: 32. […] FIG. 5C discloses SEQ ID NOS 83, 51 and 84, respectively, in order of appearance.
(§3) In order to identify the cleavage site of ADAM10/ADAM17 within the stalk region of TREM2, in vitro cleavage patterns of stalk region-derived peptides were investigated and confirmed the cleavage site by determination of the C-terminus of shed soluble TREM2 from cell culture supernatants. A series of peptides covering the stalk region were designed for in vitro investigation of ADAM10/ADAM17 cleavage (FIG. 5A). All peptides were obtained with an N-terminal 7-methoxycoumarin (Mca) fluorescent tag. Peptides 1-3, 1a and 2a were incubated with ADAM17 in neutral buffer for up to 48 hours, and reaction was followed by HPLC analysis of aliquots withdrawn at different time points.
(§4) HPLC-MS analysis of the reaction mixture of peptide3/ADAM17 identified one major product, SISRSLLEGEIPFP-NH2(SEQ ID NO: 51), together with 2 minor cleavage products (FIGS. 5B-5C). […] At these time points there was essentially no substrate left. Therefore, it can be concluded that the minor cleavage products originate from secondary ADAM17 cleavage of the main product.

ADAM10 [4] = molecular target: T1, ADAM10; test: In vitro cleavage of TREM2 stalk region peptides by ADAM10; format: biochemical; conditions: data not shown
From the text: as §3, §4
Recent literature gave insight into ADAM10 and ADAM17 preferences for the cleavage of peptides and proteins (Caescu et al., Biochem J 424, 79-88, 2009; Tucher et al., J Proteome Res 13, 2205-2214, 2014). […] After searching for the least preferred amino acids in substrates of ADAM10 and 17, isoleucine was identified as never occurring in P1 of ADAM substrates, and a very low preference for aspartate or proline in P1′ and in P2′. […] In these peptides the H-SI cleavage site was replaced with IPP, IPD, and IDP, respectively.

[5] = conditional shedding (steady state) conditions, FIG. 2A
[6] = then PMA-treated cells, FIG. 2B

T2 sequence (P78536 215-824): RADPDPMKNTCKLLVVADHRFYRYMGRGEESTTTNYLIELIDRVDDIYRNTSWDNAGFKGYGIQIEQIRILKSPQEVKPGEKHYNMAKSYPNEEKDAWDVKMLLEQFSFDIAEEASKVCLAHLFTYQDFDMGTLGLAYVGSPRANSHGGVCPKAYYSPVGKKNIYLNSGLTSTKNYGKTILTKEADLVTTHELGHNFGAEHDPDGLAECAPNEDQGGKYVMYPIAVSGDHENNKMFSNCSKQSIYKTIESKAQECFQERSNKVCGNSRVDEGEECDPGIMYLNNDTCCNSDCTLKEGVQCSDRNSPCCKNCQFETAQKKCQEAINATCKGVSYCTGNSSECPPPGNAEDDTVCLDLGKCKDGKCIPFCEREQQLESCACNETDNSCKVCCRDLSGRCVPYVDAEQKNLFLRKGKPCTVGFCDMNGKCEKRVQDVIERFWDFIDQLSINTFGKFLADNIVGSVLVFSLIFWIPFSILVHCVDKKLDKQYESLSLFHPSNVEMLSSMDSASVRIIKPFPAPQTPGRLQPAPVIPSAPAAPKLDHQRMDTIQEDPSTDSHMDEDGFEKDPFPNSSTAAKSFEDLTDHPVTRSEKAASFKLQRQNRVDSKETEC

| Molecule | IC50 (ADAM10 [1]) | IC50 (ADAM17 [2]) | Cleavage by ADAM17 (ADAM17 [3]) | Cleavage by ADAM10 (ADAM10 [4]) | TREM2 cell surface expression (human M2A macrophages; steady-state shedding, FIG. 2C) | TREM2 cell surface levels (CHO-hDAP12-hTREM2 cells; [5]) | TREM2 cell surface levels (CHO-hDAP12-hTREM2 cells; [6]) | TREM2 cell surface levels (THP1 cells; co-treatment with PMA and DPC333, AD10 H4 cells (ADAM10 knockout)) | TREM2 cell surface levels (THP1 cells; co-treatment with PMA and DPC333, AD17 G12 clone (ADAM17 knockout)) | TREM2 cell surface levels (THP1 cells; co-treatment with PMA and DPC333, Ctrl gRNA cells) | sTREM2 (THP1 cells; co-treatment with PMA and DPC333 compared to PMA treatment only, AD17 G12 clone) | TREM2 cell surface expression (human M2A macrophages; additional PMA treatment, FIG. 2D) |
| --- | --- | --- | --- | --- | --- | --- | --- | --- | --- | --- | --- | --- |
| Cc1cc(COc2ccc([C@]3(N)CCN([C@H](CC(C)C)C(=O)NO)C3=O)cc2)c2ccccc2n1 [DPC333] | 5.3 nM | < 0.6 nM |  |  | increases TREM2 cell surface expression dose-dependently | dose-dependently increases | dose-dependently increases | restored | smaller effects | restored | strongly reduced | increases TREM2 cell surface expression dose-dependently |
| Peptide 6: TREM2 stalk peptide, H-SI cleavage site replaced with IDP; SEQ ID NO: 32 (DAHVEIDPSRSLLEGEIPFP) |  |  | resistant to in vitro cleavage | slowly cleaved |  |  |  |  |  |  |  |  |

More lines, main results first:

| IC50 (ADAM10 [1]) | IC50 (ADAM17 [2]) | Cleavage by ADAM17 (ADAM17 [3]) | Cleavage by ADAM10 (ADAM10 [4]) | Molecule | TREM2 cell surface expression (human M2A macrophages; steady-state shedding, FIG. 2C) | TREM2 cell surface levels (CHO-hDAP12-hTREM2 cells; [5]) | TREM2 cell surface levels (CHO-hDAP12-hTREM2 cells; [6]) | TREM2 cell surface levels (THP1 cells; co-treatment with PMA and DPC333, AD10 H4 cells (ADAM10 knockout)) | TREM2 cell surface levels (THP1 cells; co-treatment with PMA and DPC333, AD17 G12 clone (ADAM17 knockout)) | TREM2 cell surface levels (THP1 cells; co-treatment with PMA and DPC333, Ctrl gRNA cells) | sTREM2 (THP1 cells; co-treatment with PMA and DPC333 compared to PMA treatment only, AD17 G12 clone) | TREM2 cell surface expression (human M2A macrophages; additional PMA treatment, FIG. 2D) |
| --- | --- | --- | --- | --- | --- | --- | --- | --- | --- | --- | --- | --- |
| 1.5 nM | 196 nM |  |  | CNC(=O)[C@@H](NC(=O)[C@H](CCCc1ccccc1)[C@H](C)N(O)C=O)C(C)(C)C [GI254023, (2R,3 S)-3-(formyl-hydroxyamino)-2-(3-phenyl-1-propyl) butanoic acid [(1S)-2,2-dimethyl-1-methylcarbamoyl-1-propyl] amide] | small effect | limited effect | complete lack of effect |  |  |  |  |  |
|  |  | resistant to in vitro cleavage | cleavage resistant | Peptide 4: TREM2 stalk peptide, H-SI cleavage site replaced with IPP; SEQ ID NO: 30 (DAHVEIPPSRSLLEGEIPFP) |  |  |  |  |  |  |  |  |
|  |  | Significant cleavage | very similar cleavage pattern | Peptide 3: TREM2 stalk region derived synthetic peptide with 7-methoxycoumarin (Mca) tag; SEQ ID NO: 27 (DAHVEHSISRSLLEGEIPFP; also: 7-methoxycoumarin (Mca) tag, position not given here) |  |  |  |  |  |  |  |  |
